Measured values taken from paper PMC12436592 (Nature Communications, 2025).
Where “and” joins values, the source holds several entries; their conditions need not be identical. Equal entries are not always repeated.

Legend:
[1] = design: method as in PMID 39139642; conditions: cited from earlier work
rP2X7R [2] = molecular target: T1, rP2X7R (Rattus norvegicus, UniProt Q64663); experiment: TEVC dose response of ATP at rP2X7R in Xenopus oocytes; type: cell-based; design: expressed in transfected cells; host or cells: Xenopus laevis oocytes injected with mRNA made from pcDNA 3.1x
T1 sequence (Q64663 1-595): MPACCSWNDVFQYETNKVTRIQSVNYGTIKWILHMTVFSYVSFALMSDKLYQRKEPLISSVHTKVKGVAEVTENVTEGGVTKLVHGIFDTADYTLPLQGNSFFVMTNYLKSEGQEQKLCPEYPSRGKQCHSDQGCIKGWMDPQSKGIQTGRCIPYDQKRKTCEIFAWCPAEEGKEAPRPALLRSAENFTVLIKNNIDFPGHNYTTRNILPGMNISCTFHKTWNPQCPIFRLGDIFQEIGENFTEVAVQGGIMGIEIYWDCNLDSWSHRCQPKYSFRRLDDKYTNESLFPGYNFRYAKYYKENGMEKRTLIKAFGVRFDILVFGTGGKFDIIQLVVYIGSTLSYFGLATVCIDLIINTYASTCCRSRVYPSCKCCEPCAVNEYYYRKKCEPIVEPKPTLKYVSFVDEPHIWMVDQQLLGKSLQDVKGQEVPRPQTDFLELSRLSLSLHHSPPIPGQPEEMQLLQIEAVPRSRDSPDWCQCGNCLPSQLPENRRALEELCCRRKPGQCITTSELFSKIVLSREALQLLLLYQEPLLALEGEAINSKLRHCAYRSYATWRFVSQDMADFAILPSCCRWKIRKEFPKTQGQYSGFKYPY
Protocol: (§1) Defolliculated Xenopus laevis oocytes were purchased from Ecocyte Bioscience and kept in Modified Barth’s Solution (88 mM NaCl, 1 mM KCl, 0.82 mM MgSO4, 0.33 mM Ca(NO3)2·4H2O, 0.41 mM CaCl2·2H2O, 2.4 mM NaHCO3, 5 mM HEPES) supplemented with amikacin 250 mg/L and gentamycin 150 mg/L. Oocytes were then injected with 50 nL of either full-length wild-type hP2X7R (40 ng/μL), mP2X7R (20 ng/μL), or rP2X7R (20 ng/μL) mRNA made from linearized pcDNA 3.1x according to the protocol provided in the mMessage mMachine kit (Invitrogen). Injected oocytes were allowed to express for ~20 h before recording was performed.
(§2) Data acquisition was performed using an Oocyte Clamp OC-725C amplifier and pClamp 8.2 software. Buffers were applied using a gravity-fed RSC-200 Rapid Solution Changer, flowing at ~5 mL/min. All experiments use Sutter filamented glass 10 cm in length with an inner diameter of 0.69 mm and an outer diameter of 1.2 mm to impale oocytes and clamp the holding voltage at −60 mV. Experiments were recorded in buffer containing 100 mM NaCl, 2.5 mM KCl, 0.1 mM EDTA, 0.1 mM flufenamic acid, and 5 mM HEPES at pH 7.4.
(§3) This value is then averaged amongst each singular condition and reported as the mean ± SD.

hP2X7R [3] = molecular target: T2, hP2X7R (Homo sapiens, UniProt Q99572); experiment: TEVC dose response of ATP at hP2X7R in Xenopus oocytes; type: cell-based; design: expressed in transfected cells; host or cells: Xenopus laevis oocytes injected with mRNA made from pcDNA 3.1x
T2 sequence (Q99572 1-595): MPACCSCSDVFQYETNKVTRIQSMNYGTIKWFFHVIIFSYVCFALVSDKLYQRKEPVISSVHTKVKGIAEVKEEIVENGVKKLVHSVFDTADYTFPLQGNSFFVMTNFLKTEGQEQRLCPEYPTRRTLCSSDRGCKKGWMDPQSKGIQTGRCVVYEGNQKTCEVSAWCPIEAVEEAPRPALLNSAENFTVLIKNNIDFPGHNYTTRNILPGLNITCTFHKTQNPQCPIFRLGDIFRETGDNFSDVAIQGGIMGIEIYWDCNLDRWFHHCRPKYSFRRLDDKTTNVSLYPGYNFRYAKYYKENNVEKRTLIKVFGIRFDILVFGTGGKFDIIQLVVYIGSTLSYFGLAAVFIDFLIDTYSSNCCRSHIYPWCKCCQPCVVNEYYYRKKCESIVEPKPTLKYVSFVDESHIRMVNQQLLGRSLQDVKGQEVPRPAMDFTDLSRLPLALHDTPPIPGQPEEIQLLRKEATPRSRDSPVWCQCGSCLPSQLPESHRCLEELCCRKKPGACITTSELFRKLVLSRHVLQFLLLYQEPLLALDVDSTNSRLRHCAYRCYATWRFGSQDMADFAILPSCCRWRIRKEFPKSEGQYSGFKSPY
Protocol: as §1, §2, §3

rP2X7R [4] = molecular target: rP2X7R; design: method as in PMID 39107314; conditions: BLI; read-out: equilibrium dissociation constant (KD), rP2X7R; cited from earlier work
mP2X7R = molecular target: T3, mP2X7R (Mus musculus, UniProt Q9Z1M0); experiment: TEVC dose response of ATP at mP2X7R in Xenopus oocytes; type: cell-based
T3 construct: expressed in transfected cells
T3 sequence (Q9Z1M0 1-595): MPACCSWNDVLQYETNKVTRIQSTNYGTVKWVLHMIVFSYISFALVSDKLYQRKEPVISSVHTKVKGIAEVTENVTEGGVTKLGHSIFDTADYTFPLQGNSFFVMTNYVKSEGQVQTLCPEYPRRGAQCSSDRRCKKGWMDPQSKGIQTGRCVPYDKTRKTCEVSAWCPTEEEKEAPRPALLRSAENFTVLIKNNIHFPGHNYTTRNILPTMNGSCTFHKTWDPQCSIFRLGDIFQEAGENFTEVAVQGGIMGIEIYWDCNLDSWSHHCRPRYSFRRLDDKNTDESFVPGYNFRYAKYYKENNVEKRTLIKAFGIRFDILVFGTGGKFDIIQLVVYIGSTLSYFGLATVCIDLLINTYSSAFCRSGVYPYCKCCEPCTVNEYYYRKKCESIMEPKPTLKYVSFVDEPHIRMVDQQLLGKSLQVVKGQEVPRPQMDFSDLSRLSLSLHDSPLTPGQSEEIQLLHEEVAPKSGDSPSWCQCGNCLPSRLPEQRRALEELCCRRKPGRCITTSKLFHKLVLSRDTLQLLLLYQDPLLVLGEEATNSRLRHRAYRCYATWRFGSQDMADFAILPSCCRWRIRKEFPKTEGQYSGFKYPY
Protocol: as §1, §2, §3

hP2X7R [5] = molecular target: T2, hP2X7R; experiment: Bio-layer interferometry (BLI), ATP binding to biotinylated hP2X7R
Protocol: Briefly, BLI experiments were performed at 30 °C in 384-well tilted-bottom plates (Sartorius) with orbital shaking at 1000 r.p.m. on a ForteBio Octet RED384 instrument (ForteBio Data Acquisition software 11.0) using pre-equilibrated (0.22 μm filtered PBS at pH 7.4 and 0.5 mM DDM from Anatrace) SA biosensor tips (Sartorious) loaded with 50 μg/mL of biotinylated hP2X7R ligand or biocytin (Sigma-Aldrich) control for 1800 s[34],[35]. The loaded SA sensors were blocked with 100 μg/mL of biocytin for 150 s and then washed with running buffer for 60 s. […] After data collection, rate constants for association and dissociation were determined using ForteBio Data Analysis HT 11.0 evaluation software. To maximize signal between the large ligand and small analyte, the raw data were double reference subtracted[34],[35]. For each interaction pair, the association rate constant (ka) and the dissociation rate constant (kd) were calculated with an average of three independent assays with at least four different concentrations that were globally fit to a 1:1 Langmuir binding model. The equilibrium dissociation constant (KD) was calculated as the ratio of kd to ka. The KD, ka, and kd values are reported as the average ± the standard deviation of three replicate datasets for each analyte, with each dataset using at least four independent traces. The analyzed data were exported and plotted in GraphPad Prism 9.0.

P2X7R = conditions: cited from earlier work
[6] = [ATP] 3000 μM, single experiments

O=C(NCC12CC3CC(CC(C3)C1)C2)c1cc(CCCNCCCO)ccc1Cl [AZD9056]
efficacy in phase II trials for rheumatoid arthritis [1]: limited efficacy

Nc1ncnc2c1ncn2[C@@H]1O[C@H](COP(=O)(O)OP(=O)(O)OP(=O)(O)O)[C@@H](O)[C@H]1O [ATP]
Normalized response, rP2X7R (rP2X7R [2]; [ATP] 2 μM): 0 | Normalized response, rP2X7R (rP2X7R [2]; [ATP] 37 μM): 0.41 and 0.5375 and 0.6343 | Normalized response, rP2X7R (rP2X7R [2]; [ATP] 1000 μM): 0.98 and 0.9571 and 0.9954 | Normalized response, rP2X7R (rP2X7R [2]; [6]): 1 and 0.9691 | EC50 (rP2X7R [2]; read-out: EC50 for ATP, rP2X7R, TEVC, absence of divalent cations, mean ± SD, triplicate): 34 ± 8.4 µM | Normalized response, hP2X7R (hP2X7R [3]; [ATP] 37 μM): 0.2 and 0.1456 | Normalized response, hP2X7R (hP2X7R [3]; [ATP] 1000 μM): 1 and 1.01 and 0.9474 | Normalized response, hP2X7R (hP2X7R [3]; [6]): 1.044 and 1.035 and 1.029 | EC50 (hP2X7R [3]; read-out: EC50 for ATP, hP2X7R, TEVC, absence of divalent cations, mean ± SD, triplicate): 89 ± 8.3 µM | Kd (rP2X7R [4]): 0.54 ± 0.23 µM | Normalized response, mP2X7R (mP2X7R; [ATP] 1.2 μM): 0.02 and 0.01 | Normalized response, mP2X7R (mP2X7R; [ATP] 3.7 μM): 0.017 and 0.013 and 0.009 | Normalized response, mP2X7R (mP2X7R; [ATP] 37 μM): 0.27 and 0.22 and 0.15 | Normalized response, mP2X7R (mP2X7R; [ATP] 1000 μM): 1 and 0.88 | Normalized response, mP2X7R (mP2X7R; [6]): 1 and 0.9 | EC50 (mP2X7R; read-out: EC50 for ATP, mP2X7R, TEVC, absence of divalent cations, mean ± SD, triplicate): 70 ± 17 µM | rate constant for association (ka) (hP2X7R [5]; BLI, 1:1 Langmuir model): 7.4 ± 1.3 × 10^4 M^−1 s^−1 | rate constant for dissociation (kd) (hP2X7R [5]; BLI, 1:1 Langmuir model): 4.8 ± 1.2 × 10^−2 s^−1 | Kd (hP2X7R [5]; BLI, mean ± SD, triplicate, read-out: equilibrium dissociation constant (KD), hP2X7R): 0.65 ± 0.12 µM | KD higher than at the rP2X7R (hP2X7R [5]; hP2X7R vs rP2X7R): ~ 20% | ka slower than for ATP binding to the rP2X7R (hP2X7R [5]; hP2X7R vs rP2X7R): ~ 27% | kd slower than for ATP binding to the rP2X7R (hP2X7R [5]; hP2X7R vs rP2X7R): ~ 6%

Clc1cccc(-c2nnnn2Cc2cccnc2)c1Cl [Compound A438079]
inhibitory activity across human, mouse and rat orthologs (P2X7R): equal inhibitory activity across all three orthologs
